Data set [1] concerns Staphylococcus aureus. The experiment in a line: Antibacterial activity against methicillin-sensitive Staphylococcus aureus ATCC 25923 assessed as inhibition of bacterial growth incubated for 16 to 24 hrs by broth microdilution method. The class given is functional. Conditions: time 16-24 hrs.
The test system of data set [2] is Staphylococcus aureus. Description: Antibacterial activity against Staphylococcus aureus ATCC 6538 assessed as inhibition of bacterial growth incubated for 16 to 24 hrs by broth microdilution method. It is filed as functional. Conditions: time 16-24 hrs.
Data set [3] concerns Staphylococcus aureus. The experiment in a line: Antibacterial activity against methicillin-resistant Staphylococcus aureus CIP106760 assessed as inhibition of bacterial growth incubated for 16 to 24 hrs by broth microdilution method. Conditions: time 16-24 hrs. It is filed as functional.
For data set [4], the system named is Enterococcus faecalis. The experiment in a line: Antibacterial activity against Enterococcus faecalis ATCC 29212 assessed as inhibition of bacterial growth incubated for 16 to 24 hrs by broth microdilution method. It is filed as functional. Conditions: time 16-24 hrs.
For data set [5], the system named is Enterococcus faecalis. The experiment in a line: Antibacterial activity against vancomycin-resistant Enterococcus faecalis ATCC 51299 assessed as inhibition of bacterial growth incubated for 16 to 24 hrs by broth microdilution method. It is filed as functional. Conditions: time 16-24 hrs.
Data set [6] is described as follows: Antioxidant activity assessed as DPPH radical scavenging activity at 10 ug/ml by DPPH assay relative to control. The class given is functional. Conditions: dose 10.0 µg/ml.
Data set [7] in a line: Toxicity in Saccharomyces cerevisiae ATCC 2601 assessed as reduction in cell viability measured after 24 hrs by microdilution method. Conditions: Saccharomyces cerevisiae, Saccharomyces cerevisiae ATCC 2601 cells.
Data set [8] is described as follows: Cytotoxicity against human HaCaT cells assessed as cell viability at 28 uM after 24 hrs by MTT assay. It is filed as cell-based. Conditions: read-out: Activity.
Data set [9] has as its system Staphylococcus aureus. Description: Antibacterial activity against Staphylococcus aureus assessed as inhibition of bacterial growth incubated for 16 to 24 hrs by broth microdilution method. Conditions: time 16-24 hrs. The class given is functional.
Data set [10] concerns Staphylococcus epidermidis. Description: Antibacterial activity against Staphylococcus epidermidis ATCC 12228 assessed as inhibition of bacterial growth incubated for 16 to 24 hrs by broth microdilution method. The class given is functional. Conditions: time 16-24 hrs.
A further data set relates to Bacillus subtilis. Description: Antibacterial activity against Bacillus subtilis ATCC 6633 assessed as inhibition of bacterial growth incubated for 16 to 24 hrs by broth microdilution method. The class given is functional. Conditions: time 16-24 hrs.
Data set [11] can be described thus: Toxicity in Artemia salina assessed as mortality at 10 ug/ml measured after 24 hrs. Conditions: at 10 µg/mL.
For data set [12], the system named is HaCaT. Description: (§1) Cytotoxicity against human HaCaT cells assessed as cell viability at 50 uM after 24 hrs by MTT assay. Conditions: hacat, 24 h, 50 µM. It is filed as cell-based.
For a further data set, the system named is MRC5. The experiment in a line: Cytotoxicity against human MRC5 cells assessed as reduction in cell viability measured after 24 hrs by MTT assay. The class given is cell-based. Conditions: MRC5, 24 h.
Data set [13] deals with HaCaT. The experiment in a line: Cytotoxicity against human HaCaT cells assessed as reduction in cell viability at 50 uM after 24 hrs by MTT assay. The class given is cell-based.
Data set [14] deals with Staphylococcus epidermidis. The experiment in a line: Antibacterial activity against Staphylococcus epidermidis assessed as inhibition of bacterial growth incubated for 16 to 24 hrs by broth microdilution method. The class given is functional. Conditions: time 16-24 hrs.
In a further data set the test system is Listeria monocytogenes. Description: Antibacterial activity against Listeria monocytogenes assessed as inhibition of bacterial growth incubated for 16 to 24 hrs by broth microdilution method. Conditions: time 16-24 hrs. The class given is functional.
A further data set concerns Enterococcus faecium. Description: Antibacterial activity against Enterococcus faecium assessed as inhibition of bacterial growth incubated for 16 to 24 hrs by broth microdilution method. It is filed as functional. Conditions: time 16-24 hrs.
For data set [15], the system named is Enterococcus faecalis. Description: Antibacterial activity against Enterococcus faecalis assessed as inhibition of bacterial growth incubated for 16 to 24 hrs by broth microdilution method. The class given is functional. Conditions: time 16-24 hrs.
The nature of data set [16]: as §1. The class given is cell-based. Conditions: HaCaT cells, read-out: Activity.

≈ marks a conversion by molar mass, not a printed value.

For the molecule `Cc1ccc(C(c2cc([N+](=O)[O-])ccc2O)N2CCc3ccccc32)cc1` (centres undefined), the minimum bactericidal concentration (MBC) in the data set with Staphylococcus aureus [1] was determined as 347 µM (≈ 125 µg/mL); in the data set with Staphylococcus aureus [2] it was 43.4 µM (≈ 15.6 µg/mL); with Staphylococcus aureus [3], 5.42 µM (≈ 1.95 µg/mL); in the data set on Enterococcus faecalis [4], 86.7 µM (≈ 31.2 µg/mL); in the data set on Enterococcus faecalis [5], 173 µM (≈ 62.4 µg/mL). Moreover, the MIC is 21.3 µM (≈ 7.68 µg/mL) in the data set with Staphylococcus aureus [1]; 10.8 µM (≈ 3.89 µg/mL) in the data set with Staphylococcus aureus [2]; 2.71 µM (≈ 0.977 µg/mL) in the data set with Staphylococcus aureus [3]; 10.8 µM (≈ 3.89 µg/mL) in the data set with Enterococcus faecalis [4]; 21.7 µM (≈ 7.82 µg/mL) in the data set with Enterococcus faecalis [5]. Also, the Activity in [6] is over 80%. Besides, the IC50 at 24 h in data set [7] was over 100 µM. Besides, in data set [8], the viability at 24 h, 28 µM was determined as 20%.

For the molecule `O=[N+]([O-])c1ccc(O)c(C(c2ccc(C(F)(F)F)cc2)N2CCc3ccccc32)c1` (centres undefined), the MIC with Staphylococcus aureus [9], with Staphylococcus aureus [1], in the data set with Staphylococcus aureus [2], in the data set with Staphylococcus aureus [3], in the data set on Enterococcus faecalis [4] and with Enterococcus faecalis [5] was 1.18 µM (≈ 0.489 µg/mL) throughout. For the same molecule, the MIC in data set [10] is under 1.18 µM; in the data set with Bacillus subtilis, under 1.18 µM; in [14], 1.18 µM (≈ 0.489 µg/mL); in the data set with Listeria monocytogenes, 1.18 µM (≈ 0.489 µg/mL); with Enterococcus faecium, 2.36 µM (≈ 0.978 µg/mL); in the data set on Enterococcus faecalis [15], 2.36 µM (≈ 0.978 µg/mL). The MBC in the data set with Staphylococcus aureus [1] is 37.7 µM (≈ 15.6 µg/mL); in the data set on Staphylococcus aureus [2], 2.36 µM (≈ 0.978 µg/mL); with Staphylococcus aureus [3], 1.18 µM (≈ 0.489 µg/mL); in the data set on Enterococcus faecalis [4], 9.43 µM (≈ 3.91 µg/mL); in the data set on Enterococcus faecalis [5] it was 151 µM (≈ 62.6 µg/mL); in [10], under 1.18 µM. Moreover, the MBC with Bacillus subtilis is under 1.18 µM. Also, the mortality at 24 h, 10 ug/ml in data set [11] turned out to be 8%. In addition, in data set [7], the IC50 at 24 h is over 100 µM. Also, the Activity result in the data set on HaCaT [12] and with HaCaT [13] was “Non-Toxic” each time. Besides, in the data set with MRC5, the IC50 is 1.7 µM.

With `Cc1ccc(C(c2cc([N+](=O)[O-])ccc2O)N2CCc3cc([N+](=O)[O-])ccc32)cc1` (centres undefined), the MIC in the data set with Staphylococcus aureus [9] was determined as 9.64 µM (≈ 3.91 µg/mL); in the data set on Staphylococcus aureus [1] it was 1.2 µM (≈ 0.486 µg/mL); with Staphylococcus aureus [2] it was 19.3 µM (≈ 7.82 µg/mL); in the data set on Staphylococcus aureus [3] it was 1.2 µM (≈ 0.486 µg/mL); in the data set on Enterococcus faecalis [4] it was 1.2 µM (≈ 0.486 µg/mL); with Enterococcus faecalis [5], 2.41 µM (≈ 0.977 µg/mL). In addition, the MIC in data set [10] came out at 18.9 µM (≈ 7.66 µg/mL); with Bacillus subtilis, 18.9 µM (≈ 7.66 µg/mL); in data set [14], 9.64 µM (≈ 3.91 µg/mL); with Listeria monocytogenes, 9.64 µM (≈ 3.91 µg/mL); in the data set with Enterococcus faecium, 9.64 µM (≈ 3.91 µg/mL); with Enterococcus faecalis [15] it was 19.3 µM (≈ 7.81 µg/mL). For the same molecule, the MBC in the data set on Staphylococcus aureus [1] came to 38.6 µM (≈ 15.6 µg/mL); with Staphylococcus aureus [2], 77.1 µM (≈ 31.3 µg/mL); with Staphylococcus aureus [3], 4.82 µM (≈ 1.95 µg/mL); with Enterococcus faecalis [4] it was 9.64 µM (≈ 3.91 µg/mL); in the data set with Enterococcus faecalis [5], 154 µM (≈ 62.4 µg/mL); in data set [10] it was 37.7 µM (≈ 15.3 µg/mL). Further, in the data set on Bacillus subtilis, the MBC amounted to 37.7 µM (≈ 15.3 µg/mL). For the same molecule, the Activity in [6] came to 8%. In [7], the IC50 at 24 h is over 100 µM. Further, the viability at 24 h, 50 µM in data set [16] stood at 94%.

Values taken from ChEMBL document CHEMBL4837201, “Increased antibacterial properties of indoline-derived phenolic Mannich bases” (Eur J Med Chem, 2021).
